Measurements: patent publication US20190169134A1, “NOVEL CLASS OF QUINOLONE HETEROCYCLIC AROMATIC MOLECULES FOR CANCER TREATMENT” (RenoTarget Therapeutics, Inc., priority 2016, published 2019)

Tests used:
Format in all cases: cell-based, human
[1] = tested on: HCC827 P and HCC827 TR cells; assay: Reno647/Carboplatin combination, median effects (SRB, CalcuSyn)
Protocol: As described in Example 2.1. Two cell lines, HCC827-P and HCC827-TR (Tarceva-resistant HCC727 cells-an EGFRi resistant cell line with MET amplification) (Wang, Pursell et al. 2013) were used in the combination study. Exponentially growing HC[…] and HCC827-TR cells were seeded into 96-wells dishes at density of 3,000 cells per well. Twenty-four hours later, the cells were exposed concurrently to serial dilution of Reno647 or Carboplatin or Camptothecin alone or in combination at a ratio of 1:50 with Carboplatin or at ratio 1:1 with Camptothecin for 3 days. Reno647 were concurrently and sequentially with paclitaxel (Taxol) at ratio of 200:1 for 6 days. For sequential exposure, the cells were treated with Reno647 for 3 days, after removal of the drug containing medium, the cells were treated with Taxol for additional 3 days, or the cells were treated by Taxol first followed by the treatment with Reno 647. After incubation for 6 days, the cell growth was measured by SRB as described previously in Example 2.1 section, and the percentages of inhibition (1-T/C) % were calculated, and data were analyzed by a PC program, CalcuSyn, Biosoft (edited by T.-C. Chou, Memorial Sloan-Kettering Cancer Center, New York, and M. P. Hayball, at Cambridge, UK, 1996). The computer-calculated combination index (CI) was used to judge the outcomes of a combination: […] It has long been accepted that chemotherapy provided some benefit for patients with non-small-cell lung cancer (NSCLC) in terms of quality of life and symptomatology as well as modest improvements in survival. […] Cell growth was determined by SRB as described above.

HCC827-P = assay: qRT-PCR expression of Caspase 3, Caspase 9 and p21; settings: 24 h
Protocol: (§1) FIG. 10 depicts the effect of Reno647 on expressions of Caspase 3, Caspase 9 and p21 in HCC827-P and on Box, Bcl2, p53 and p21 in HCC827-OR16 cells. […] Total cellular RNA was extracted and cDNA was prepared followed by qRT-PCR using specific probes as described in the section of Materials and Methods. Tgene ΔCt value was normalized for GAPDH by calculating ΔCt=Ctgene−CtGAPDH per sample.
(§2) HCC827 P or other indicated cells at exponential growth phase were treated with indicated concentrations of compounds for 24 hours. Total cellular RNA was prepared from lysed tumor cells using an RNA Purification kit (ThermoFisher Scientific). The first-strand of cDNA was synthesized using a High Capacity cDNA reverse transcription kit (ThermoFisher Scientific) in PTC-100 Peltier Thermal Cycler PCR. The resultant cDNA (0.5-1 μL) was used in a 10 μl reaction by using Taqman Universal PCR Master Mix (ThermoFisher Scientific). The pre-designed primers and probe were purchased from Life Technologies and used for qPCR. Human GAPDH was used as an internal control. qPCR was performed using Applied Biosystems StepOne and StepOnePlus Real-Time PCR Systems according manufacturer's instructions. An initial PCR denaturation step was performed at 95° C. for 20 seconds. The general cycling stage for qPCR were as follows: denaturation at 95° C. for 1 second, annealing and extension at 60° C. for 20 seconds, repeat for 40 cycles. Tgene ΔCt value was normalized for GAPDH by calculating ΔCt=Ctgene−CtGAPDH per sample.

HCC827-OR16 = assay: qRT-PCR expression of p21; settings: HCC827-OR16, 24 h, q-RT-PCR
Protocol: as §1
as §2, with “The general cycling stage for qPCR were as follows: denaturation at 95° C. for 1 second, annealing and extension at 60° C. for 20 seconds, repeat for 40 cycles. Tgene ΔCt value was normalized for GAPDH by calculating ΔCt=Ctgene−CtGAPDH per sample.” left out

PD-L1 = assay: qRT-PCR expression of PD-L1 in HCC827-P cells; settings: 1 μM, 24 hrs
Protocol: FIG. 11 depicts the effects of Reno647 on expression of PD-L1 in HCC827-P and HCC827-TR cells. HCC827-P and HCC827-TR cells at exponential growth phase were exposed to indicated concentration of Reno647 for 24 hrs. Total cellular RNA was extracted and cDNA was prepared followed by qRT-PCR using specific probes for PD-L1 and GAPDH (internal control) as described in the section of Materials and Methods. Tgene ΔCt value was normalized for GAPDH by calculating ΔCt=Ctgene−CtGAPDH per sample.
as §2, with “The general cycling stage for qPCR were as follows: denaturation at 95° C. for 1 second, annealing and extension at 60° C. for 20 seconds, repeat for 40 cycles. Tgene ΔCt value was normalized for GAPDH by calculating ΔCt=Ctgene−CtGAPDH per sample.” left out

p21 expression (HCC827-P; q-RT-PCR): significant induction
Caspase 3 expression (HCC827-P; qRT-PCR): moderate increase
SMILES: C#Cc1cccc(Nc2ncnc3cc(OCCOC)c(NC(=O)c4ccc(F)c([N+](=O)[O-])c4)cc23)c1 [Reno647, 4-Fluoro-N-[4-(3-ethynyl-phenylamino)-7-(2-methoxy-ethoxy)-quinazolin-6-yl]-3-nitro-benzamide]
dose reduction in combination ([1]; Reno647:Carboplatin 1:50): > 10 fold
median effects, two drugs combined ([1]; Reno647:Carboplatin 1:50, concurrent, cell line not stated): 0.067 µM
median effects, drug alone ([1]; single agent, cell line not stated): 0.697 µM
Caspase 9 expression (HCC827-P; qRT-PCR): significant and concentration-dependent induction
p21 expression (HCC827-OR16): significant induction
reduction of PD-L1 expression (PD-L1): Over 93%
